Test results reported in ChEMBL document CHEMBL1123163, “Absolute configuration of (-)-5-benzoyl-1,2-dihydro-3H-pyrrolo[1,2-alpha]pyrrole-1-carboxylic acid, the active enantiomer of ketorolac” (1986).

Experiments:
Rattus norvegicus = assay: Antiinflammatory activity using carrageenan rat paw edema assay along with 15 mg/kg of phenylbutazone; assay type: functional
Mus musculus = assay: Analgesic activity using mouse phenylquinone writhing assay along with 70 mg/kg of aspirin; assay type: functional

SMILES	ED50 (Rattus norvegicus)	ED50 (Mus musculus)
O=C(c1ccccc1)C1CCC2[C@H](C(=O)O)CCN12 (stereo partly specified)	3 mg/kg	< 3 mg/kg
O=C(O)C1CCN2C(C(=O)c3ccccc3)CCC12 (racemic)	96 mg/kg	399 mg/kg
O=C(c1ccccc1)C1CCC2[C@@H](C(=O)O)CCN12 (stereo partly specified)	170 mg/kg	699 mg/kg
